Source: article PMC6259918, “Antitrypanosomal Activity of Novel Benzaldehyde-Thiosemicarbazone Derivatives from Kaurenoic Acid ^†” (Molecules, 2011)
Read-outs that look alike come from different tables or passages of the source.

Tests used:
[1] = tested on: epimastigote forms of T. cruzi (Y strain); assay: Antitrypanosomal assay; type: cell-based, Trypanosoma cruzi; details: for IC50: mean ± SD; for SI (selectivity index): SI: CC50 LLMCK2 / IC50 epimastigote
Description: Stock solutions of the synthetic compounds and kaurenoic acid (5, 10, 50, and 100 µg/mL) were prepared in dimethylsulfoxide with their final concentrations not exceeding 1.0%. For the assay, epimastigote forms of T. cruzi (Y strain) were harvested during the exponential phase of growth, resuspended in liver infusion tryptose broth supplemented with 10% inactivated fetal bovine serum (Gibco Invitrogen Corporation, New York, NY, USA) and plated on 24-well plates at a concentration of 1 × 10^6 cells/mL. One milliliter of diluted compounds were included in each well and incubated for 96 h at 28 °C. Cell density was determined by counting the parasites in a hemocytometer chamber (Improved Double Neubauer) under a light microscope. All assays were carried out twice, in duplicate, on separate occasions.

[2] = Cytotoxicity assay (sulforhodamine B); type: cell-based; details: rhesus monkey, LLMCK2 cells, 96 h incubation, mean ± SD
Description: The cytotoxic effect was evaluated against LLMCK2 cells in 96-well plates. A suspension of 2.5 × 10^4 cells was added to each well and left to grow as a monolayer for 24 h at 37 °C in a 5% CO2/air mixture. After this period, different concentrations of the synthetic compounds and kaurenoic acid (10 to 100 µg/mL) were added to the wells, and the plate was incubated for 96 h under the same conditions described above. The cells were fixed in 10% trichloroacetic acid at 4 °C for 1 h, washed five times with distilled water, and allowed to dry at room temperature. A solution of 4% sulforhodamine B (in 1% acetic acid) was added to each well, and the plate was kept protected from light for 30 min at 4 °C. The wells were then washed four times with 1% acetic acid, an aliquot (150 µL) of 10 mM Tris-base was added, and the aliquot was homogenized for 15 min. The absorbance was read at 530 nm in a microplate spectrophotometer, and data were calculated as the percentage of inhibition of growth. A concentration for 50% cellular toxicity (CC50) was defined as the concentration that reduced the optic density of treated cells by 50% relative to untreated cells.

[3] = Trypanosoma cruzi, 96 h, epimastigote form of T. cruzi Y strain, 96 h at 28 °C, parasite counting, read-out: Epimastigote IC50

| melting point | Structure (SMILES) | IC50 [1, 3] | CC50 at 96 h [2] | SI (selectivity index) [1] | IC50 ([1]; Trypanosoma cruzi, 96 h, read-out: Epimastigote IC50, epimastigote form of T. cruzi Y strain, 96 h at 28 °C, parasite counting) | IC50 ([1]; read-out: Epimastigote IC50, epimastigote form of T. cruzi Y strain, 96 h at 28 °C, parasite counting) | IC50 ([1]; epimastigote form of T. cruzi Y strain, 96 h at 28 °C, parasite counting, read-out: Epimastigote IC50) | CC50 [2] |
| --- | --- | --- | --- | --- | --- | --- | --- | --- |
| 223 °C | Cc1ccc(/C=N/NC(=S)N[C@]2(C)C[C@@]34CC[C@H]5[C@@](C)(CCC[C@@]5(C)C(=O)O)[C@@H]3CC[C@@H]2C4)cc1 [compound 6, N1-(E)-[4-Methylphenyl]-N4-[ent-kauren-16β-methyl-19-oic acid]-thiosemicarbazone] | 23.4 ± 7.7 µM | 122.4 ± 1 µM |  |  |  |  |  |
| 217 °C | C[C@@]12CCC[C@@](C)(C(=O)O)[C@H]1CC[C@@]13C[C@@H](CC[C@H]12)[C@](C)(NC(=S)N/N=C/c1cccc([N+](=O)[O-])c1)C3 [compound 11, N1-(E)-[3-Nitrophenyl]-N4-[ent-kauren-16β-methyl-19-oic acid]-thiosemicarbazone] | 19 µM | 104.8 ± 0.4 µM |  |  |  |  |  |
| 211 °C | C[C@@]12CCC[C@@](C)(C(=O)O)[C@H]1CC[C@@]13C[C@@H](CC[C@H]12)[C@](C)(NC(=S)N/N=C/c1ccccc1[N+](=O)[O-])C3 [compound 10, N1-(E)-[2-Nitrophenyl]-N4-[ent-kauren-16β-methyl-19-oic acid]-thiosemicarbazone] | 2 ± 1.1 µM | 17.1 ± 0.1 µM |  |  |  |  |  |
| 165 °C | C[C@@]12CCC[C@@](C)(C(=O)O)[C@H]1CC[C@@]13C[C@@H](CC[C@H]12)[C@](C)(SC#N)C3 [compound 3, ent-Kauren-16α-thiocyane-16β-methyl-19-oic acid] | 43.7 µM | 103.4 ± 0.7 µM |  |  |  | 43.4 ± 5.6 µM |  |
| 202 °C | C[C@@]12CCC[C@@](C)(C(=O)O)[C@H]1CC[C@@]13C[C@@H](CC[C@H]12)[C@](C)(NC(=S)N/N=C/c1ccccc1)C3 [compound 5, N1-(E)-Phenyl-N4-[ent-kauren-16β-methyl-19-oic acid]-thiosemicarbazone] | 68.2 ± 11.2 µM | 31.1 ± 1 µM | 0.5 |  |  |  |  |
| 202.5 °C | C[C@@]12CCC[C@@](C)(C(=O)O)[C@H]1CC[C@@]13C[C@@H](CC[C@H]12)[C@](C)(NC(=S)N/N=C/c1ccccc1Cl)C3 [compound 13, N1-(E)-[2-Chlorophenyl]-N4-[ent-kauren-16β-methyl-19-oic acid]-thiosemicarbazone] | 39.4 ± 14.3 µM | 364 ± 11.3 µM |  |  |  |  |  |
| 131 °C | C[C@@]12CCC[C@@](C)(C(=O)O)[C@H]1CC[C@@]13C[C@@H](CC[C@H]12)[C@](C)(NC(=S)NN)C3 [compound 4, N4-[ent-Kauren-16β-methyl-19-oic acid]-thiosemicarbazide] | 107 ± 13 µM | 71.4 ± 0.7 µM | 0.7 |  |  |  |  |
| 191.5 °C | C[C@@]12CCC[C@@](C)(C(=O)O)[C@H]1CC[C@@]13C[C@@H](CC[C@H]12)[C@](C)(NC(=S)N/N=C/c1ccc(O)cc1)C3 [compound 8, N1-(E)-[4-Hydroxyphenyl]-N4-[ent-kauren-16β-methyl-19-oic acid]-thiosemicarbazone] | 18.3 ± 4 µM | 29.5 ± 0.8 µM |  |  |  |  |  |
| 214.5 °C | COc1ccc(/C=N/NC(=S)N[C@]2(C)C[C@@]34CC[C@H]5[C@@](C)(CCC[C@@]5(C)C(=O)O)[C@@H]3CC[C@@H]2C4)cc1 [compound 7, N1-(E)-[4-Methoxyphenyl]-N4-[ent-kauren-16β-methyl-19-oic acid]-thiosemicarbazone] | 16 ± 4.4 µM | 78.2 µM |  |  |  |  |  |
| 223.5 °C | C[C@@]12CCC[C@@](C)(C(=O)O)[C@H]1CC[C@@]13C[C@@H](CC[C@H]12)[C@](C)(NC(=S)N/N=C/c1ccc(Cl)cc1)C3 [compound 15, N1-(E)-[4-Chlorophenyl]-N4-[ent-kauren-16β-methyl-19-oic acid]-thiosemicarbazone] | 14.9 ± 0.3 µM | 28.7 ± 1.1 µM |  |  |  |  |  |
| 219.5 °C | C[C@@]12CCC[C@@](C)(C(=O)O)[C@H]1CC[C@@]13C[C@@H](CC[C@H]12)[C@](C)(NC(=S)N/N=C/c1ccc([N+](=O)[O-])cc1)C3 [compound 12, N1-(E)-[4-Nitrophenyl]-N4-[ent-kauren-16β-methyl-19-oic acid]-thiosemicarbazone] | 117 ± 12.8 µM | 15.2 µM | 0.1 |  |  |  |  |
|  | C=C1C[C@@]23CC[C@H]4[C@@](C)(CCC[C@@]4(C)C(=O)O)[C@@H]2CC[C@@H]1C3 [compound 1, ent-kaur-16-en-19-oic acid, reference compound] | 102 µM |  | 0.6 |  |  |  | 59.5 ± 0.1 µM |
| 231 °C | CN(C)c1ccc(/C=N/NC(=S)N[C@]2(C)C[C@@]34CC[C@H]5[C@@](C)(CCC[C@@]5(C)C(=O)O)[C@@H]3CC[C@@H]2C4)cc1 [compound 9, N1-(E)-[4-Dimethylaminophenyl]-N4-[ent-kauren-16β-methyl-19-oic acid]-thiosemicarbazone] | 79.5 ± 17.9 µM | 248.5 ± 0.6 µM |  |  |  |  |  |
| 207 °C | C[C@@]12CCC[C@@](C)(C(=O)O)[C@H]1CC[C@@]13C[C@@H](CC[C@H]12)[C@](C)(NC(=S)N/N=C/c1cccc(Cl)c1)C3 [compound 14, N1-(E)-[3-Chlorophenyl]-N4-[ent-kauren-16β-methyl-19-oic acid]-thiosemicarbazone] | 23.5 ± 7 µM | 56.2 ± 0.4 µM |  |  |  |  |  |

| Structure (SMILES) | melting point | IC50 [1, 3] | CC50 at 96 h [2] | SI (selectivity index) [1] | IC50 ([1]; Trypanosoma cruzi, 96 h, read-out: Epimastigote IC50, epimastigote form of T. cruzi Y strain, 96 h at 28 °C, parasite counting) | IC50 ([1]; read-out: Epimastigote IC50, epimastigote form of T. cruzi Y strain, 96 h at 28 °C, parasite counting) | IC50 ([1]; epimastigote form of T. cruzi Y strain, 96 h at 28 °C, parasite counting, read-out: Epimastigote IC50) | CC50 [2] |
| --- | --- | --- | --- | --- | --- | --- | --- | --- |
| C[C@@]12CCC[C@@](C)(C(=O)O)[C@H]1CC[C@@]13C[C@@H](CC[C@H]12)[C@](C)(N=C=S)C3 [compound 2, ent-Kauren-16α-isothiocyane-16β-methyl-19-oic acid] | 174 °C |  | 52 ± 0.3 µM | 0.9 | 58.4 µM | 58.2 ± 0.2 µM |  |  |
